Results from patent US20220017516A1, “LOX INHIBITORS” (THE INSTITUTE OF CANCER RESEARCH: ROYAL CANCER HOSPITAL, priority 2018, published 2022).
Like-named read-outs stand apart in the source and are kept apart here.

Tests used:
diamine oxidase (DAO) = target: T1, diamine oxidase (DAO) (Sus scrofa, UniProt Q9TRC7); experiment: Diamine oxidase catalytic activity assay (ROS Glo); format: biochemical
T1 construct: purchased Sigma
T1 sequence (Q9TRC7 25-755): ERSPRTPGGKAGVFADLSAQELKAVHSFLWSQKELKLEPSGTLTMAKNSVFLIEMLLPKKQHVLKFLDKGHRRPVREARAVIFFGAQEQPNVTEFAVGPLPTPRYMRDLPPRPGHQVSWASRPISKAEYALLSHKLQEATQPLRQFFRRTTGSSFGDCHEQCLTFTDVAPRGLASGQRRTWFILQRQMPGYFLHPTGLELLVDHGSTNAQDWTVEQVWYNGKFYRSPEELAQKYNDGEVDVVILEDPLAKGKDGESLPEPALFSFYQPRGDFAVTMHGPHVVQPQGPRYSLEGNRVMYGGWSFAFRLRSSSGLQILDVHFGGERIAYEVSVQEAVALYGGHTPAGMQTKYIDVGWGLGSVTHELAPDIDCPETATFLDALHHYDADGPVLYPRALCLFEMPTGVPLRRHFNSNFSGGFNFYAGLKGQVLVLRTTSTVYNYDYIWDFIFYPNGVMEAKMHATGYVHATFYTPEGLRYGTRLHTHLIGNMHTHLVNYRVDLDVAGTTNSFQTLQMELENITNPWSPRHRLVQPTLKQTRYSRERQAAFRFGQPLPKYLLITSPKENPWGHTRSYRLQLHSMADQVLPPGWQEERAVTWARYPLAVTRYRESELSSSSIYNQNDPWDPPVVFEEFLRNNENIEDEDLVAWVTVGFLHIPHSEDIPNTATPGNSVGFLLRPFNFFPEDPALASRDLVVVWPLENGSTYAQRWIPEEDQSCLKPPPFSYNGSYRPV
Description: The diamine oxidase (DAO) catalytic activity was determined using the Promega ROS Glo assay kit (G8821); DAO was purchased from Sigma and cadaverine dihydrochloride was used as the substrate at a concentration of 97.8 mM. The concentrations of the chemical inhibitors were the same as in the MAO assays. Luminescence was measured with an integration time of 500 ms/well using a SpectaMax M5 plate reader and resulting IC50 values were calculated using GraphPad Prism software.
In another setting, the DAO and MAO assays were performed in 384-well plates (Greiner) and test compound was added using a Labcyte Echo™ Acoustic Handler for the same final concentrations as in the 96-well setting. Luminescence was measured with BMG LABTECH PHERAstar FS plate reader.

LOXL2 = target: T2, LOXL2 (Homo sapiens, UniProt Q9Y4K0); experiment: LOX isoform activity assay (ROS Glo), LOXL2; format: biochemical
T2 construct: purchased R&D Systems/Bio-techne
T2 sequence (Q9Y4K0 26-774): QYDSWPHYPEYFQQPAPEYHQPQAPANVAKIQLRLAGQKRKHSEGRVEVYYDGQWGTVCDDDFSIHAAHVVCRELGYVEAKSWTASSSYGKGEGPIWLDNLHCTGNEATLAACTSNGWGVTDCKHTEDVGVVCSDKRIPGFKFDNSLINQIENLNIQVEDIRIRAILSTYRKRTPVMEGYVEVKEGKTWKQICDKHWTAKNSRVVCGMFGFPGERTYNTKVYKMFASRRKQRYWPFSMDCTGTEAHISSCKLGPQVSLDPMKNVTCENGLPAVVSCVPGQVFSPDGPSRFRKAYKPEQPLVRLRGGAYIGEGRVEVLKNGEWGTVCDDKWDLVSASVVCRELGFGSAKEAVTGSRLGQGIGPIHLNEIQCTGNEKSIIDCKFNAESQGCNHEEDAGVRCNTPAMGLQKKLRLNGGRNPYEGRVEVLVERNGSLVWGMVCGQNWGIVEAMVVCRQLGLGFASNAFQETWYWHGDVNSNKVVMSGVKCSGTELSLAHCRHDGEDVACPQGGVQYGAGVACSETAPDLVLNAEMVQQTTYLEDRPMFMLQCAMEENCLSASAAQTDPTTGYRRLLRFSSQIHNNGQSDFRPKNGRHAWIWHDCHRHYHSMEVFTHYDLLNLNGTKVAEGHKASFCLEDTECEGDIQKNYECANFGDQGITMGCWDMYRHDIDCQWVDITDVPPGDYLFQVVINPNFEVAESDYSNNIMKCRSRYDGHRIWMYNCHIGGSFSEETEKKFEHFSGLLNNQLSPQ
How it was run: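 Human LOXL2 in 100 mM CHES pH 9 (1 M urea, 100 mM NaCl, 1 mM MgCl2, 0.5% BSA, 0.05% pluronic F-127) preincubated with compound (0.003–100 μM final) for 20 min, 1 h or 20 h. Cadaverine 19.56 mM and H2O2 25 μM added, 1 h at RT. Luminescence (ROS-Glo luciferin detection) fitted to IC50.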

[1] = 20 hr incubation with enzyme; read-out: LOXL2 IC50 c) 20 hr
[2] = 1 hr incubation with enzyme; read-out: LOXL2 IC50 b) 1 hr

Row | Structure (SMILES) | IC50 (diamine oxidase (DAO)) [µM] | IC50 (LOXL2; [1]) [µM] | IC50 (LOXL2; 20 min incubation with enzyme; read-out: LOXL2 IC50 a) 20 min) [µM] | IC50 (LOXL2; [2]) [µM]
1 | CCOc1ccc(N2C[C@@H]3C[C@H]2CN3CCS(=O)(=O)CCN)cc1 [Example 2, 2-((2-((1S,4S)-5-(4-ethoxyphenyl)-2,5-diazabicyclo[2.2.1]heptan-2-yl)ethyl)sulfonyl)-ethan-1-amine] | > 100 | 0.4 | – | –
2 | CCOc1ccc(N2C[C@H]3CN(CCS(=O)(=O)CCN)C[C@@H]2C(C)(C)C3)cc1 [Example 1, 2-((2-((1R,5S)-6-(4-ethoxyphenyl)-9,9-dimethyl-3,6-diazabicyclo[3.2.2]nonan-3-yl)ethyl)sulfonyl)ethan-1-amine] | > 100 | 1.6 | – | –
3 | CCOc1ccc(N2CC3CN(CCS(=O)(=O)CCN)CC3C2)cc1 (stereo not shown) [Example 4, 2-((2-(5-(4-ethoxyphenyl)hexahydropyrolo [3,4-c]pyrrol-2(1H)-yl)ethyl)sulfonyl)ethan-1-amine] | – | – | 7.3 | –
4 | CCOc1ccc(N2C[C@H]3CN(c4ccc(S(=O)(=O)CCN)cc4)C[C@@H]2C(C)(C)C3)cc1 [Example 33, 2-((4-((1R,5S)-6-(4-ethoxyphenyl)-9,9-dimethyl-3,6-diazabicyclo [3.2.2]nonan-3-yl)phenyl)sulfonyl)ethan-1-amine] | – | 16 | – | –
5 | CCOc1ccc(N2C[C@H]3CN(C(=O)NCCS(=O)(=O)CCN)C[C@@H]2C(C)(C)C3)cc1 [Example 38, (1S,5S)—N-(2-((2-aminoethyl)sulfonyl)ethyl)-6-(4-ethoxyphenyl)-9,9-dimethyl-3,6-diazabicyclo[3.2.2]nonane-3-carboxamide] | > 100 | – | – | 0.58
6 | CCOc1ccc(N2C[C@@H]3C[C@H]2CN3C(=O)C2(S(=O)(=O)CCN)CC2)cc1 [Example 42, (1-((2-Aminoethyl)sulfonyl)cyclopropyl)((1S,4S)-5-(4-ethoxyphenyl)-2,5-diazabicyclo[2.2.1]heptan-2-yl)methanone] | > 100 | – | – | 11
7 | NCCS(=O)(=O)CC(=O)N1CCN(c2ncccn2)CC1 [Example 12, 2-((2-Aminoethyl)-sulfonyl)-1-(4-(pyrimidin-2-yl)-piperazin-1-yl)ethan-1-one] | > 100 | – | – | 0.43
8 | CCOc1ccc(N2C[C@H]3CN(C(=O)CS(=O)(=O)CCN)C[C@@H]2C(C)(C)C3)cc1 [Example 7, 2-((2-aminoethyl)sulfonyl)-1-((1S,5S)-6-(4-ethoxyphenyl)-9,9-dimethyl-3,6-diazabicyclo[3.2.2]nonan-3-yl)ethan-1-one] | > 100 | 0.27 | – | –
9 | Cc1ccc(S(=O)(=O)N2C[C@H]3CN(C(=O)CS(=O)(=O)CCN)C[C@H]3C2)cc1 [Example 11, 2-((2-aminoethyl)-sulfonyl)-1-(cis-5-tosylhexahydro-pyrrolo[3,4-c]pyrrol-2(1H)-yl)ethan-1-one] | > 100 | – | – | 0.17
10 | CCOc1ccc(N2C[C@@H]3C[C@H]2CN3C(=O)CS(=O)(=O)CCN)cc1 [Example 8, 2-((2-aminoethyl)-sulfonyl)-1-((1S,4S)-5-(4-ethoxyphenyl)-2,5-diazabicyclo-[2.2.1]heptan-2-yl)-ethan-1-one] | > 100 | 0.15 | – | –
11 | CCOC(=O)CCC(C(=O)N1C[C@@H]2C[C@H]1CN2c1ccc(OCC)cc1)S(=O)(=O)CCN (stereo partly drawn) [Example 41, ethyl 4-((2-aminoethyl)sulfonyl)-5-((1S,4S)-5-(4-ethoxyphenyl)-2,5-diazabicyclo[2.2.1]heptan-2-yl)-5-oxopentanoate] | > 100 | – | – | 3.1
12 | NCCS(=O)(=O)CC(=O)N1CCN(c2ccccc2)CC1 [Example 13, 2-((2-Aminoethyl)-sulfonyl)-1-(4-phenylpiperazin-1-yl)ethan-1-one] | > 100 | – | – | 0.4
